Laboratory results from the supplement of paper PMC10307832.

Assays:
Assay in all cases: relative viability (nuclei count vs DMSO), 5 days (fraction); higher = more cells survive
LXF-289 = system: LXF-289
In short: (§1)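 Lung cancer cell lines, seeded in 1536-well plates, were treated the following day by pin tool with a single drug or with five library-drug doses (not always all listed) in √10 steps on top of a fixed anchor-drug dose. Cells were fixed and nuclei stained in one step after 5 days, and nuclei were counted. Relative viability is the nuclei count for treated wells divided by that for vehicle wells, reported as medians of duplicate plates.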

LCLC-103H = system: LCLC-103H
In short: as §1

NCI-H1650 = system: NCI-H1650
In short: as §1

SK-LU-1 = system: SK-LU-1
In short: as §1

NCI-H1437 = system: NCI-H1437
In short: as §1

HCC-827 = system: HCC-827
In short: as §1

NCI-H3122 = system: NCI-H3122
In short: as §1

NCI-H647 = system: NCI-H647
In short: as §1

NCI-H2405 = system: NCI-H2405
In short: as §1

NCI-H2087 = system: NCI-H2087
In short: as §1

NCI-H1793 = system: NCI-H1793
In short: as §1

NCI-H2228 = system: NCI-H2228
In short: as §1

NCI-H322M = system: NCI-H322M
In short: as §1

NCI-H1944 = system: NCI-H1944
In short: as §1

NCI-H1792 = system: NCI-H1792
In short: as §1

NCI-H1395 = system: NCI-H1395
In short: as §1

201T = system: 201T
In short: as §1

RERF-LC-KJ = system: RERF-LC-KJ
In short: as §1

BEN = system: BEN
In short: as §1

CAL-12T = system: CAL-12T
In short: as §1

NCI-H727 = system: NCI-H727
In short: as §1

CC(=O)O[C@@]12CO[C@@H]1C[C@H](O)[C@@]1(C)C(=O)[C@H](O)C3=C(C)[C@@H](OC(=O)[C@H](O)[C@@H](NC(=O)OC(C)(C)C)c4ccccc4)C[C@@](O)([C@@H](OC(=O)c4ccccc4)[C@H]21)C3(C)C [Docetaxel] + CC(=O)c1c(C)c2cnc(Nc3ccc(N4CCNCC4)cn3)nc2n(C2CCCC2)c1=O [Palbociclib] (partner 0.5 µM)
relative viability (LXF-289; first compound 0.0002 µM): 0.578
relative viability (LXF-289; first compound 0.000632 µM): 0.569
relative viability (LXF-289; first compound 0.002 µM): 0.337
relative viability (LXF-289; first compound 0.006325 µM): 0.222
relative viability (LXF-289; first compound 0.02 µM): 0.131
relative viability (LCLC-103H; first compound 0.0002 µM): 0.496
relative viability (LCLC-103H; first compound 0.000632 µM): 0.532
relative viability (LCLC-103H; first compound 0.002 µM): 0.5
relative viability (LCLC-103H; first compound 0.006325 µM): 0.598
relative viability (LCLC-103H; first compound 0.02 µM): 0.57
relative viability (NCI-H1650; first compound 0.0002 µM): 0.257
relative viability (NCI-H1650; first compound 0.000632 µM): 0.263
relative viability (NCI-H1650; first compound 0.002 µM): 0.207
relative viability (NCI-H1650; first compound 0.006325 µM): 0.216
relative viability (NCI-H1650; first compound 0.02 µM): 0.138
relative viability (SK-LU-1; first compound 0.0002 µM): 0.358
relative viability (SK-LU-1; first compound 0.000632 µM): 0.315
relative viability (SK-LU-1; first compound 0.002 µM): 0.409
relative viability (SK-LU-1; first compound 0.006325 µM): 0.265
relative viability (SK-LU-1; first compound 0.02 µM): 0.19
relative viability (NCI-H1437; first compound 0.0002 µM): 0.261
relative viability (NCI-H1437; first compound 0.000632 µM): 0.33
relative viability (NCI-H1437; first compound 0.002 µM): 0.297
relative viability (NCI-H1437; first compound 0.02 µM): 0.156
relative viability (HCC-827; first compound 0.0002 µM): 0.508
relative viability (HCC-827; first compound 0.000632 µM): 0.446
relative viability (HCC-827; first compound 0.002 µM): 0.375
relative viability (HCC-827; first compound 0.006325 µM): 0.213
relative viability (HCC-827; first compound 0.02 µM): 0.197
relative viability (NCI-H3122; first compound 0.0002 µM): 0.184
relative viability (NCI-H3122; first compound 0.000632 µM): 0.205
relative viability (NCI-H3122; first compound 0.002 µM): 0.174
relative viability (NCI-H3122; first compound 0.006325 µM): 0.187
relative viability (NCI-H3122; first compound 0.02 µM): 0.114
relative viability (NCI-H647; first compound 0.0002 µM): 0.3
relative viability (NCI-H647; first compound 0.000632 µM): 0.387
relative viability (NCI-H647; first compound 0.002 µM): 0.11
relative viability (NCI-H647; first compound 0.006325 µM): 0.0808
relative viability (NCI-H647; first compound 0.02 µM): 0.062
relative viability (NCI-H2405; first compound 0.0002 µM): 0.525
relative viability (NCI-H2405; first compound 0.000632 µM): 0.513
relative viability (NCI-H2405; first compound 0.002 µM): 0.456
relative viability (NCI-H2405; first compound 0.006325 µM): 0.401
relative viability (NCI-H2405; first compound 0.02 µM): 0.29
relative viability (NCI-H2087; first compound 0.0002 µM): 0.218
relative viability (NCI-H2087; first compound 0.000632 µM): 0.179
relative viability (NCI-H2087; first compound 0.002 µM): 0.135
relative viability (NCI-H2087; first compound 0.006325 µM): 0.144
relative viability (NCI-H2087; first compound 0.02 µM): 0.102
relative viability (NCI-H1793; first compound 0.0002 µM): 0.242
relative viability (NCI-H1793; first compound 0.000632 µM): 0.358
relative viability (NCI-H1793; first compound 0.002 µM): 0.347
relative viability (NCI-H1793; first compound 0.006325 µM): 0.266
relative viability (NCI-H1793; first compound 0.02 µM): 0.208
relative viability (NCI-H2228; first compound 0.0002 µM): 0.52
relative viability (NCI-H2228; first compound 0.000632 µM): 0.251
relative viability (NCI-H2228; first compound 0.002 µM): 0.195
relative viability (NCI-H2228; first compound 0.006325 µM): 0.137
relative viability (NCI-H2228; first compound 0.02 µM): 0.129
relative viability (NCI-H322M; first compound 0.0002 µM): 0.469
relative viability (NCI-H322M; first compound 0.000632 µM): 0.448
relative viability (NCI-H322M; first compound 0.002 µM): 0.471
relative viability (NCI-H322M; first compound 0.006325 µM): 0.468
relative viability (NCI-H322M; first compound 0.02 µM): 0.438
relative viability (NCI-H1944; first compound 0.0002 µM): 0.359
relative viability (NCI-H1944; first compound 0.000632 µM): 0.268
relative viability (NCI-H1944; first compound 0.002 µM): 0.314
relative viability (NCI-H1944; first compound 0.006325 µM): 0.22
relative viability (NCI-H1944; first compound 0.02 µM): 0.14
relative viability (NCI-H1792; first compound 0.0002 µM): 0.651
relative viability (NCI-H1792; first compound 0.000632 µM): 0.639
relative viability (NCI-H1792; first compound 0.002 µM): 0.543
relative viability (NCI-H1792; first compound 0.006325 µM): 0.367
relative viability (NCI-H1792; first compound 0.02 µM): 0.213
relative viability (NCI-H1395; first compound 0.0002 µM): 0.589
relative viability (NCI-H1395; first compound 0.000632 µM): 0.638
relative viability (NCI-H1395; first compound 0.002 µM): 0.5
relative viability (NCI-H1395; first compound 0.006325 µM): 0.42
relative viability (NCI-H1395; first compound 0.02 µM): 0.274
relative viability (201T; first compound 0.0002 µM): 0.357
relative viability (201T; first compound 0.000632 µM): 0.369
relative viability (201T; first compound 0.002 µM): 0.367
relative viability (201T; first compound 0.006325 µM): 0.388
relative viability (201T; first compound 0.02 µM): 0.335
relative viability (RERF-LC-KJ; first compound 0.0002 µM): 1.02
relative viability (RERF-LC-KJ; first compound 0.000632 µM): 1.37
relative viability (RERF-LC-KJ; first compound 0.002 µM): 0.381
relative viability (RERF-LC-KJ; first compound 0.006325 µM): 0.249
relative viability (RERF-LC-KJ; first compound 0.02 µM): 0.165
relative viability (BEN; first compound 0.0002 µM): 0.457
relative viability (BEN; first compound 0.000632 µM): 0.478
relative viability (BEN; first compound 0.002 µM): 0.39
relative viability (BEN; first compound 0.006325 µM): 0.376
relative viability (BEN; first compound 0.02 µM): 0.343
relative viability (CAL-12T; first compound 0.0002 µM): 0.251
relative viability (CAL-12T; first compound 0.000632 µM): 0.282
relative viability (CAL-12T; first compound 0.002 µM): 0.192
relative viability (CAL-12T; first compound 0.006325 µM): 0.198
relative viability (CAL-12T; first compound 0.02 µM): 0.105
relative viability (NCI-H727; first compound 0.0002 µM): 0.618
relative viability (NCI-H727; first compound 0.000632 µM): 0.64
relative viability (NCI-H727; first compound 0.002 µM): 0.629
relative viability (NCI-H727; first compound 0.006325 µM): 0.538
relative viability (NCI-H727; first compound 0.02 µM): 0.446
